Measurements reported in PubChem BioAssay AID200 (DTP/NCI, 2004).
Where “and” joins values, the source holds several entries; their conditions need not be identical. Equal entries are not always repeated. Toxic doses and inconclusive results are not listed.

Tested on: B6C3F1 mice, B16 melanoma ip, median survival T/C
Assay: NCI In Vivo Anticancer Drug Screen. Data for tumor model B16 Melanoma (intraperitoneal) in B6C3F1 mice
Conditions: endpoint: median survival time, schedule: Q01DX009 (ip), higher = longer survival
Experimental: The antitumor activity of compounds was measured in mice bearing transplantable tumors. Survival or tumor size were measured and the results are expressed as the measurement made in the treated group (T) divided by the measurement made in the vehicle treated control group (C). The tumor model used in this assay is B16 Melanoma (intraperitoneal) in B6C3F1 mice

[1] = dose: 25.0 mg/kg/injection, vehicle: Klucel (hydroxypropylcellulose) (HPC)
[2] = dose: 50.0 mg/kg/injection, vehicle: Klucel (hydroxypropylcellulose) (HPC)
[3] = dose: 25.0 mg/kg/injection, vehicle: saline
[4] = dose: 50.0 mg/kg/injection, vehicle: saline
[5] = dose: 100.0 mg/kg/injection, vehicle: saline
[6] = dose: 100.0 mg/kg/injection, vehicle: Klucel (hydroxypropylcellulose) (HPC)
[7] = dose: 200.0 mg/kg/injection, vehicle: Klucel (hydroxypropylcellulose) (HPC)
[8] = dose: 400.0 mg/kg/injection, vehicle: Klucel (hydroxypropylcellulose) (HPC)
[9] = dose: 25.0 mg/kg/injection, vehicle: saline with Tween-80
[10] = dose: 50.0 mg/kg/injection, vehicle: saline with Tween-80
[11] = dose: 100.0 mg/kg/injection, vehicle: saline with Tween-80
[12] = dose: 200.0 mg/kg/injection, vehicle: saline with Tween-80
[13] = dose: 400.0 mg/kg/injection, vehicle: saline with Tween-80
[14] = dose: 6.25 mg/kg/injection, vehicle: saline

**Q.** For `CO[C@H]1C[C@H](O[C@H]2CC[C@@]3(C)[C@H](CC[C@@H]4[C@@H]3CC[C@]3(C)[C@@H](C5=CC(=O)OC5)CC[C@]43O)C2)O[C@H](C)[C@H]1O`, which T/C (dose: 1.9 mg/kg/injection, vehicle: Klucel (hydroxypropylcellulose) (HPC)) is on record?
**A.** 88 % of control

**Q.** And the T/C (dose: 2.8 mg/kg/injection, vehicle: Klucel (hydroxypropylcellulose) (HPC))?
**A.** 100 % of control

**Q.** And the T/C (dose: 4.3 mg/kg/injection, vehicle: Klucel (hydroxypropylcellulose) (HPC))?
**A.** 102 % of control

**Q.** What about the T/C (dose: 6.4 mg/kg/injection, vehicle: Klucel (hydroxypropylcellulose) (HPC)) of the same molecule?
**A.** 94 % of control

**Q.** How did the T/C (dose: 12.5 mg/kg/injection, vehicle: suspension in saline) turn out when `O=C(O)Cc1cccc2c(=O)cc(-c3ccccc3)oc12` was run?
**A.** 109 % of control and 103 % of control

**Q.** And the T/C (dose: 25.0 mg/kg/injection, vehicle: suspension in saline)?
**A.** 115 % of control and 123 % of control

**Q.** What about the T/C (dose: 50.0 mg/kg/injection, vehicle: suspension in saline) of the same molecule?
**A.** 172 % of control

**Q.** What about the T/C (dose: 100.0 mg/kg/injection, vehicle: suspension in saline) of the same molecule?
**A.** 152 % of control and 163 % of control

**Q.** `CC[n+]1c(-c2ccccc2)c2cc(N)ccc2c2ccc(N)cc21` was tested. Which T/C (dose: 0.75 mg/kg/injection, vehicle: water) did it give?
**A.** 97 % of control

**Q.** And the T/C (dose: 1.5 mg/kg/injection, vehicle: water)?
**A.** 104 % of control

**Q.** And the T/C (dose: 3.0 mg/kg/injection, vehicle: water)?
**A.** 117 % of control and 97 % of control

**Q.** What about the T/C (dose: 6.0 mg/kg/injection, vehicle: water) of the same molecule?
**A.** 118 % of control

**Q.** What about the T/C (dose: 12.0 mg/kg/injection, vehicle: water) of the same molecule?
**A.** 154 % of control

**Q.** With `COC(=O)C12OCC34C(CC5C(C)C6=CC(=O)OC6=CC5(C)C3C(O)C1O)OC(=O)C(O)C24` (stereo not drawn) as the molecule, how does the T/C (dose: 0.5 mg/kg/injection, vehicle: Klucel (hydroxypropylcellulose) (HPC)) read?
**A.** 154 % of control

**Q.** What about the T/C (dose: 180.0 micrograms/kg/injection, vehicle: Klucel (hydroxypropylcellulose) (HPC)) of the same molecule?
**A.** 116 % of control

**Q.** What about the T/C (dose: 833.3 micrograms/kg/injection, vehicle: Klucel (hydroxypropylcellulose) (HPC)) of the same molecule?
**A.** 153 % of control

**Q.** What about the T/C (dose: 1388.8 micrograms/kg/injection, vehicle: Klucel (hydroxypropylcellulose) (HPC)) of the same molecule?
**A.** 178 % of control

**Q.** Which results are given for `COc1nc(C(Cl)(Cl)Cl)c(Cl)c(OC)c1Cl`?
**A.** T/C [1]: 96 % of control; T/C [2]: 104 % of control

**Q.** With `CCCCC(C)(CCN)CCCC` as the molecule, how does the T/C [3] read?
**A.** 105 % of control

**Q.** What about the T/C [4] of the same molecule?
**A.** 122 % of control

**Q.** And the T/C [5]?
**A.** 101 % of control

**Q.** `CNC(=S)C#N` was tested. Which T/C (dose: 12.5 mg/kg/injection, vehicle: saline + Tween-80 + alcohol) did it give?
**A.** 119 % of control

**Q.** And the T/C (dose: 25.0 mg/kg/injection, vehicle: saline + Tween-80 + alcohol)?
**A.** 86 % of control

**Q.** `O=c1[nH]cnc2n[nH]nc12` was tested. Which T/C (dose: 12.5 mg/kg/injection, vehicle: Klucel (hydroxypropylcellulose) (HPC)) did it give?
**A.** 107 % of control

**Q.** And the T/C [1]?
**A.** 97 % of control

**Q.** And the T/C [2]?
**A.** 92 % of control

**Q.** What about the T/C [6] of the same molecule?
**A.** 90 % of control

**Q.** And the T/C [7]?
**A.** 97 % of control

**Q.** What about the T/C [8] of the same molecule?
**A.** 90 % of control

**Q.** How did the T/C (dose: 12.5 mg/kg/injection, vehicle: saline with Tween-80) turn out when `COC(=O)c1ccc(O)cc1` was run?
**A.** 92 % of control

**Q.** What about the T/C [9] of the same molecule?
**A.** 103 % of control

**Q.** What about the T/C [10] of the same molecule?
**A.** 106 % of control

**Q.** What about the T/C [11] of the same molecule?
**A.** 117 % of control

**Q.** What about the T/C [12] of the same molecule?
**A.** 101 % of control

**Q.** And the T/C [13]?
**A.** 96 % of control

**Q.** What does the source list for `O=C(O)CNC(=O)CNC(=O)CNC(=O)CNC(=O)CNC(=O)OCc1ccccc1`?
**A.** T/C [6]: 111 % of control; T/C [7]: 96 % of control; T/C [8]: 97 % of control

**Q.** With `COc1ccc(CC(N)c2ccccc2)cc1` (stereo not drawn) as the molecule, how does the T/C [4] read?
**A.** 99 % of control

**Q.** What about the T/C [5] of the same molecule?
**A.** 96 % of control

**Q.** Which T/C (dose: 4.68 mg/kg/injection, vehicle: saline) does the source give for `CN(C)CCCN1c2ccccc2Sc2ccc(Cl)cc21` here?
**A.** 92 % of control

**Q.** What about the T/C (dose: 9.37 mg/kg/injection, vehicle: saline) of the same molecule?
**A.** 104 % of control

**Q.** And the T/C (dose: 18.75 mg/kg/injection, vehicle: saline)?
**A.** 105 % of control

**Q.** Which T/C [4] does the source give for `O=C1CCC(=O)N1CO` here?
**A.** 121 % of control

**Q.** What about the T/C [5] of the same molecule?
**A.** 117 % of control

**Q.** `CN(C)c1ccc(C(=C2C=CC(=[N+](C)C)C=C2)c2ccc(N(C)C)cc2)cc1` (tested in a mixture with another compound) was tested. Which T/C (dose: 0.62 mg/kg/injection, vehicle: saline) did it give?
**A.** 95 % of control

**Q.** What about the T/C (dose: 1.25 mg/kg/injection, vehicle: saline) of the same molecule?
**A.** 105 % of control

**Q.** What about the T/C (dose: 2.5 mg/kg/injection, vehicle: saline) of the same molecule?
**A.** 104 % of control

**Q.** What does the source list for `O=C(Nc1ccc(C2=NCCCN2)cc1)c1ccc(C(=O)Nc2ccc(C3=NCCCN3)cc2)nc1`?
**A.** T/C (dose: 0.31 mg/kg/injection, vehicle: saline with Tween-80): 100 % of control; T/C (dose: 0.62 mg/kg/injection, vehicle: saline with Tween-80): 106 % of control; T/C (dose: 1.25 mg/kg/injection, vehicle: saline with Tween-80): 105 % of control; T/C (dose: 2.5 mg/kg/injection, vehicle: saline with Tween-80): 100 % of control; T/C (dose: 5.0 mg/kg/injection, vehicle: saline with Tween-80): 100 % of control

**Q.** For `O=C(O)C(O)C(O)C1[O][Sb][O]C1C(=O)O` (stereo not drawn), which T/C [14] is on record?
**A.** 96 % of control

**Q.** What about the T/C (dose: 12.5 mg/kg/injection, vehicle: saline) of the same molecule?
**A.** 97 % of control

**Q.** And the T/C [3]?
**A.** 104 % of control

**Q.** And the T/C [4]?
**A.** 107 % of control

**Q.** For `CC(C)C1OC(=O)/C=C/C=C/C=C/C=C/C=C/CC(O)C(C)C(O)CC(O)CC(O)CC(O)CC(O)CC(O)CC(O)/C=C/C1C` (stereo not drawn), which T/C (dose: 1.56 mg/kg/injection, vehicle: saline) is on record?
**A.** 101 % of control

**Q.** What about the T/C (dose: 3.12 mg/kg/injection, vehicle: saline) of the same molecule?
**A.** 100 % of control

**Q.** And the T/C [14]?
**A.** 102 % of control

**Q.** For `CCCCCCCCCCCC(=O)NC1CC(O[C@H]2C[C@](O)(C(=O)CO)Cc3c(O)c4c(c(O)c32)C(=O)c2c(OC)cccc2C4=O)OC(C)C1O` (stereo partly drawn), which T/C (dose: 3.0 mg/kg/injection, vehicle: saline) is on record?
**A.** 171 % of control and 294 % of control

**Q.** What about the T/C (dose: 6.0 mg/kg/injection, vehicle: saline) of the same molecule?
**A.** 250 % of control and 333 % of control

**Q.** And the T/C (dose: 12.0 mg/kg/injection, vehicle: saline)?
**A.** 333 % of control and 357 % of control

**Q.** What about the T/C (dose: 24.0 mg/kg/injection, vehicle: saline) of the same molecule?
**A.** 122 % of control and 357 % of control

**Q.** What about the T/C (dose: 48.0 mg/kg/injection, vehicle: saline) of the same molecule?
**A.** 94 % of control

**Q.** Which T/C [9] does the source give for `Cc1cc2c(C(C)C)c(O)c(O)c(C=NCCO)c2c(O)c1-c1c(C)cc2c(C(C)C)c(O)c(O)c(C=NCCO)c2c1O` here?
**A.** 109 % of control and 111 % of control and 103 % of control

**Q.** What about the T/C [10] of the same molecule?
**A.** 108 % of control and 109 % of control and 91 % of control

**Q.** What about the T/C [11] of the same molecule?
**A.** 109 % of control and 121 % of control and 101 % of control

**Q.** What about the T/C [12] of the same molecule?
**A.** 114 % of control and 120 % of control

**Q.** And the T/C [13]?
**A.** 153 % of control

**Q.** How did the T/C (dose: 12.5 mg/kg/injection, vehicle: other) turn out when `CN(N=O)C(=O)N[C@@H](C=O)[C@@H](O)[C@H](O)[C@H](O)CO` was run?
**A.** 115 % of control

**Q.** And the T/C (dose: 25.0 mg/kg/injection, vehicle: other)?
**A.** 120 % of control
